From ChEMBL document CHEMBL1155440, “1-(5-carboxyindol-1-yl)propan-2-one inhibitors of human cytosolic phospholipase A(2)alpha with reduced lipophilicity: synthesis, biological activity, metabolic stability, solubility, bioavailability, and topical in vivo activity” (J Med Chem, 2010)
≈ marks a conversion by molar mass, not a printed value. Calls of active or inactive are those of the source. No cut-off for these calls is given here.

Columns and labels:
[1] = Inhibition of human platelet cPLA2alpha assessed as inhibition of arachidonic acid production after 60 mins by UV-reverse phase HPLC analysis; details: 1 h
[2] = Metabolic stability in rat liver microsomes assessed as compound remaining after 30 mins by HPLC/MS analysis; assay type: ADME, Microsome; details: read-out: Stability
[3] = Partition coefficient, log P at 5 mM by reverse phase HPLC analysis; assay type: physicochemical; details: octanol/water
[4] = Thermodynamic solubility in sodium phosphate buffer of pH 7.4 by UV-reverse phase HPLC analysis; assay type: physicochemical
[5] = organism: Homo sapiens; test: Inhibition of human platelet cPLA2alpha assessed as inhibition of arachidonic acid production at 1 uM after 60 mins by UV-reverse phase HPLC analysis
[6] = Drug level in C57Bl6 mouse plasma at 100 mg/kg, po after 1 hr by UV-reverse phase HPLC analysis; assay type: ADME, organism-based; parameters: dose 100 mg/kg, route oral; details: read-out: Drug uptake
[7] = Drug level in C57Bl6 mouse plasma at 10 mg/kg, po after 2 hrs by UV-reverse phase HPLC analysis; assay type: ADME, organism-based; parameters: dose 10 mg/kg, route oral; details: read-out: Drug uptake
[8] = Drug level in C57Bl6 mouse plasma at 100 mg/kg, po after 2 hrs by UV-reverse phase HPLC analysis; assay type: ADME, organism-based; parameters: dose 100 mg/kg, route oral; details: read-out: Drug uptake
[9] = Drug level in C57Bl6 mouse plasma at 10 mg/kg, po after 1 hr by UV-reverse phase HPLC analysis; assay type: ADME, organism-based; parameters: dose 10 mg/kg, route oral; details: read-out: Drug uptake
[10] = Drug level in C57Bl6 mouse bile at 10 mg/kg, iv after 30 mins by HPLC/MS analysis; assay type: ADME, organism-based; parameters: dose 10 mg/kg, route intravenous; details: read-out: Drug uptake
[11] = Drug level in C57Bl6 mouse plasma at 10 mg/kg, iv after 30 mins by UV-reverse phase HPLC analysis; assay type: ADME, organism-based; parameters: dose 10 mg/kg, route intravenous; details: read-out: Drug uptake
[12] = Drug level in C57Bl6 mouse plasma at 10 mg/kg, iv after 5 mins by UV-reverse phase HPLC analysis; assay type: ADME, organism-based; parameters: dose 10 mg/kg, route intravenous; details: read-out: Drug uptake
[13] = Drug level in C57Bl6 mouse bile at 100 mg/kg, po after 2 hrs by HPLC/MS analysis; assay type: ADME, organism-based; parameters: dose 100 mg/kg, route oral; details: read-out: Drug uptake
[14] = Inhibition of cPLA2alpha
[15] = molecular target: Phospholipase A2, major isoenzyme (Sus scrofa) (UniProt P00592); test: Inhibition of pig pancreas group 1B sPLA2 assessed as inhibition of POPG cleavage at 10 uM after 30 mins by HPLC analysis
[16] = organism: Homo sapiens; test: Inhibition of human platelet cPLA2alpha assessed as inhibition of arachidonic acid production at 33 nM after 60 mins by UV-reverse phase HPLC analysis
[17] = molecular target: T1, 85/88 kDa calcium-independent phospholipase A2 (Rattus norvegicus) (UniProt P97570); test: Inhibition of Sprague-Dawley rat brain iPLA2 assessed as inhibition of substrate cleavage at 10 uM after 60 mins by HPLC analysis
T1 sequence (whole entry): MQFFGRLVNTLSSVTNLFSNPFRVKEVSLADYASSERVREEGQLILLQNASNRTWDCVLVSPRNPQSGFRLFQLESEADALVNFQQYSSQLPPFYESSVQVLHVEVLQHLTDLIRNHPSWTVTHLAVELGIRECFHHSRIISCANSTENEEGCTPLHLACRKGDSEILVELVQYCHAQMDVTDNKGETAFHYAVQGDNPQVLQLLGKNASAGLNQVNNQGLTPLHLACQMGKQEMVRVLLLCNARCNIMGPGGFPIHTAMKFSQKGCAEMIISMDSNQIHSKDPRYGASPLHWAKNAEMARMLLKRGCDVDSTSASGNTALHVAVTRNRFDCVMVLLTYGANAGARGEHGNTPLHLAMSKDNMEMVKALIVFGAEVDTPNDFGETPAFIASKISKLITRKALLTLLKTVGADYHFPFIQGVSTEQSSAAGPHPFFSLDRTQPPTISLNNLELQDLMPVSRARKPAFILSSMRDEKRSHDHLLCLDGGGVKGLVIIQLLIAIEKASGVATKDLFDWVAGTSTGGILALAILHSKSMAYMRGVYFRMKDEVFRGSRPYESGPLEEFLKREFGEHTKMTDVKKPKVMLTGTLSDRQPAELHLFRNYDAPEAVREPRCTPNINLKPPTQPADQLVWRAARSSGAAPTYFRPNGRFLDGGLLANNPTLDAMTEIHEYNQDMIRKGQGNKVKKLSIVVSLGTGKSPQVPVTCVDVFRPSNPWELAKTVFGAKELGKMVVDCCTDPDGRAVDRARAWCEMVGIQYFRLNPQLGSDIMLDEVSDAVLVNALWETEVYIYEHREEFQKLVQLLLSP

Chain of Phospholipase A2, major isoenzyme (Sus scrofa) (P00592 23-146 limits assumed): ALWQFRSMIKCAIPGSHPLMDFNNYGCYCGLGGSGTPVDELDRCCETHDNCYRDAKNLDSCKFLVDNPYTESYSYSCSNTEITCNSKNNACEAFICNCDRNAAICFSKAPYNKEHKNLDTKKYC

Row | Compound | IC50 [1] [nM] | remaining at 0.5 h [2] [%] | logP at 5000 µM [3] | solubility thermodynamic [4] [µg/mL] | other results
1 | CCCCCCCCOc1ccc(OCC(=O)Cn2ccc3cc(C(=O)O)ccc32)cc1 | 26 | 79 | 5.9 | < 3 | 
2 | O=C(COc1ccc(-c2ccc(F)cc2)cc1)Cn1ccc2cc(C(=O)O)ccc21 | 37 | 14 | 3.2 | < 3 | 
3 | COc1ccc2c(c1)c(CC(=O)O)c(C)n2C(=O)c1ccc(Cl)cc1 [INDOMETHACIN] |  |  | 2.9 | 246 (≈ 688 µM) | 
4 | CC(C)(c1ccccc1)c1ccc(OCC(=O)Cn2ccc3cc(C(=O)O)ccc32)cc1 | 47 | 0 | 4.1 | 25 (≈ 58.5 µM) | 
5 | O=C(COc1ccc(-c2cccc(F)c2)cc1)Cn1ccc2cc(C(=O)O)ccc21 | 41 | 22 | 3.2 | < 3 | 
6 | O=C(COc1ccc(-c2ccccc2)cc1F)Cn1ccc2cc(C(=O)O)ccc21 | 230 | 16 | 3.3 | 5 (≈ 12.4 µM) | 
7 | CCCCCCCCCOc1ccc(OCC(=O)Cn2ccc3cc(C(=O)O)ccc32)cc1 | 23 | 74 | 6.5 | < 3 | 
8 | CC(C)c1ccc(-c2ccc(OCC(=O)Cn3ccc4cc(C(=O)O)ccc43)cc2)cc1 | 35 | 40 | 4.7 | < 3 | 
9 | NC(=O)c1ccc2c(ccn2CC(=O)COc2ccc(-c3ccccc3)cc2)c1 | 150 | 33 | 2.4 | < 3 | 
10 | NC(=O)c1ccc2c(ccn2CC(=O)COc2cccc(-c3ccccc3)c2)c1 | 250 | 15 | 2.3 | < 3 | 
11 | Cc1cc(-c2ccccc2)ccc1OCC(=O)Cn1ccc2cc(C(=O)O)ccc21 | > 1000 | 33 |  | < 3 | inhibition [5]: 16%
12 | COc1cc(-c2ccccc2)ccc1OCC(=O)Cn1ccc2cc(C(=O)O)ccc21 |  | 72 | 2.9 | 6 (≈ 14.4 µM) | inhibition [5]: inactive
13 | CC(C)C(=O)c1cn(CC(O)COc2ccc(Oc3ccccc3)cc2)c2ccc(C(=O)O)cc12 (stereo unspecified) |  |  |  |  | concentration at 1 h [6]: 1700 ng/mL; concentration at 2 h [7]: 34000 ng/mL; concentration at 2 h [8]: 300 ng/mL; concentration at 1 h [9]: 42000 ng/mL; concentration at 0.5 h [10]: 96 µg/mL; concentration at 0.5 h [11]: 500 ng/mL; concentration at 5 min [12]: 6200 ng/mL; concentration at 2 h [13]: 42000 ng/mL
14 | CC(=O)c1cn(CC(=O)COc2ccc(OCCOc3ccccc3)cc2)c2ccc(C(=O)O)cc12 | 41 | 68 | 2.6 | 34 (≈ 69.7 µM) | 
15 | CCCCCCCOc1ccc(OCC(=O)Cn2ccc3cc(C(=O)O)ccc32)cc1 | 32 | 57 | 5.2 | < 3 | 
16 | O=C(COc1ccc(Cc2ccccc2)cc1)Cn1ccc2cc(C(=O)O)ccc21 | 54 | 7 | 3.3 | 18 (≈ 45.1 µM) | 
17 | O=C(COc1ccc(Oc2ccc(C(F)(F)F)cc2)cc1)Cn1ccc2cc(C(=O)O)ccc21 | 19 | 57 | 4 | < 3 | 
18 | O=C(COc1ccc(Oc2ccccc2)cc1)Cn1ccc2cc(C(=O)O)ccc21 | 36 | 3 | 3.1 | 43 (≈ 107 µM) | 

Row | Compound | IC50 [1] [nM] | remaining at 0.5 h [2] [%] | logP at 5000 µM [3] | solubility thermodynamic [4] [µg/mL] | other results
19 | O=C(COc1ccc(-c2ccccc2)cc1Cl)Cn1ccc2cc(C(=O)O)ccc21 | > 1000 | 61 | 3.7 | < 3 | inhibition [5]: 29%
20 | CC(=O)c1cn(CC(=O)COc2ccc(Oc3ccc(C(F)(F)F)cc3)cc2)c2ccc(C(=O)O)cc12 | 10 | 73 | 3.5 | < 3 | 
21 | CCCCCCCCc1ccc(OCC(=O)Cn2ccc3cc(C(N)=O)ccc32)cc1 | 120 | 54 | 5.5 | < 3 | IC50 [14]: 35 nM
22 | NC(=O)c1ccc2c(ccn2CC(=O)COc2ccccc2-c2ccccc2)c1 |  | 20 | 2.3 | < 3 | inhibition [5]: inactive
23 | O=C(COc1ccc(OCCOc2ccccc2)cc1)Cn1ccc2cc(C(=O)O)ccc21 | 110 | 21 | 3.1 | 31 (≈ 69.6 µM) | 
24 | CCCCCCCCCCOc1ccc(OCC(=O)Cn2ccc3cc(C(=O)O)ccc32)cc1 | 20 | 67 | 7.1 | < 3 | 
25 | O=C(O)CC[C@@H](Cc1ccc(OCc2ccccc2)cc1)NC(=O)CCCCCCc1ccccc1 |  |  |  |  | inhibition [15]: 89%
26 | O=C(COc1ccc(-c2ccccc2)cc1)Cn1ccc2cc(C(=O)O)ccc21 | 64 | 7 | 3.2 | 5 (≈ 13 µM) | 
27 | CCCCCCCCc1ccc(OCC(=O)Cn2ccc3cc(C(=O)O)ccc32)cc1 |  |  | 6.3 |  | inhibition [16]: 47%; IC50 [14]: 120 nM
28 | O=C(COc1ccc(-c2cccc(Cl)c2)cc1)Cn1ccc2cc(C(=O)O)ccc21 | 19 | 31 | 3.8 | < 3 | 
29 | O=C1O/C(=C/Br)CCC1c1cccc2ccccc12 (stereo unspecified) |  |  |  |  | inhibition [17]: 50%
30 | O=C(COc1ccccc1-c1ccccc1)Cn1ccc2cc(C(=O)O)ccc21 |  | 81 | 3.1 | 21 (≈ 54.5 µM) | inhibition [5]: inactive
31 | O=C(COc1ccc(-c2ccc(Cl)cc2)cc1)Cn1ccc2cc(C(=O)O)ccc21 | 27 | 46 | 3.9 | < 3 | 
32 | COc1ccc(-c2ccc(OCC(=O)Cn3ccc4cc(C(=O)O)ccc43)cc2)cc1 | 90 | 2 | 3 | < 3 | 
33 | Cc1ccc(-c2ccc(OCC(=O)Cn3ccc4cc(C(=O)O)ccc43)cc2)cc1 | 40 | 22 | 3.7 | < 3 | 
34 | CC(=O)c1cn(CC(=O)COc2ccc(Oc3ccccc3)cc2)c2ccc(C(=O)O)cc12 | 12 | 41 | 2.6 | 111 (≈ 250 µM) | 
35 | O=C(COc1cccc(-c2ccccc2)c1)Cn1ccc2cc(C(=O)O)ccc21 | 210 | 13 | 3.1 | 16 (≈ 41.5 µM) | 
36 | CCCCCCOc1ccc(OCC(=O)Cn2ccc3cc(C(=O)O)ccc32)cc1 | 34 | 38 | 4.6 | 7 (≈ 17.1 µM) | 
